In PubChem BioAssay (NCI):
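Following 48 hours of exposure in 96-well plates, responses at five concentrations were used to interpolate endpoints linearly. Abbreviation: GI50, concentration required for 50% inhibition of growth. The concentration for full growth arrest is given as TGI.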

What was measured:
Assay in all cases: NCI-60 cell line screen, 48 h
HT29 colon = tested on: HT29 colon
K-562 leukemia = tested on: K-562 leukemia
MOLT-4 leukemia = tested on: MOLT-4 leukemia
NCI-H460 lung = tested on: NCI-H460 lung
RPMI-8226 leukemia = tested on: RPMI-8226 leukemia
SK-OV-3 ovarian = tested on: SK-OV-3 ovarian
DU-145 prostate = tested on: DU-145 prostate
MALME-3M melanoma = tested on: MALME-3M melanoma
MCF7 breast = tested on: MCF7 breast
MDA-N = tested on: MDA-N

Structure (SMILES)	TGI (HT29 colon) [µM]	TGI (K-562 leukemia) [µM]	TGI (MOLT-4 leukemia) [µM]	TGI (NCI-H460 lung) [µM]	TGI (RPMI-8226 leukemia) [µM]	TGI (SK-OV-3 ovarian) [µM]	TGI (DU-145 prostate) [µM]	TGI (MALME-3M melanoma) [µM]	TGI (MCF7 breast) [µM]	TGI (MDA-N) [µM]	GI50 (MCF7 breast) [µM]	GI50 (DU-145 prostate) [µM]	GI50 (HT29 colon) [µM]	GI50 (K-562 leukemia) [µM]	GI50 (MALME-3M melanoma) [µM]	GI50 (MDA-N) [µM]	GI50 (MOLT-4 leukemia) [µM]	GI50 (NCI-H460 lung) [µM]	GI50 (SK-OV-3 ovarian) [µM]
CC1CC2=C(S(=O)(=O)c3ccccc3)CC(S(=O)(=O)c3ccccc3)(S(=O)(=O)c3ccccc3)CC21 (stereo not given)	> 100	> 100	> 100	> 100	> 100	> 100													
CCOC(=O)Cn1c(=O)ccn(COCCO)c1=O	> 100	> 100	> 100	> 100	> 100		> 100	> 100	> 100	> 100									
Clc1ccc(C[P+](c2ccccc2)(c2ccccc2)c2ccccc2)c(Cl)c1	10.4		18.1	11.8	5.31	24.4		15.7											
C[C@@H]1Nc2cc(NC(=O)OCCF)nc(N)c2N=C1c1ccccc1		< 0.0001	< 0.0001		< 0.0001			49	> 100	< 0.0001	< 0.0001								
CCOC(=O)CNC(=O)N(CC)C12CC3CC(CC(C3)C1)C2	204	409	322	406	316	216		278	444										
CCOC(=O)c1ccc(N[C@@H]2c3cc4c(cc3C(c3cc(OC)c(O)c(OC)c3)[C@H]3C(=O)OCC32)OCO4)cc1O (stereo not given in full)	1.32		1.21	0.822	4.77	2.2		14.2	> 79.3										
COc1cc2oc(-c3ccc(O)cc3)c(OC)c(=O)c2c(O)c1OC	> 100	> 100	> 100	> 100		> 100	> 100	> 100	> 100	> 100	51.4	18.3	31.1	42.8	28.4	25.5	27.4	41.1	49.6
CCOP(=O)(OCC)C(c1ccc(F)cc1)N(C(=O)NC(F)(F)F)c1cccc(C(F)(F)F)c1 (stereo not given)	> 100	> 100	> 100	> 100	> 100	> 100	> 100	> 100	> 100	> 100									
CCC(C)NC1=NCC(C)S1 (stereo not given)	> 100	> 100	> 100	> 100	> 100	> 100	> 100	> 100	> 100	> 100									
COCCCNc1nc(N)c(C#N)c(C#N)c1C#N	> 10	> 10	> 10	> 10	> 10	> 10	> 10	> 10	> 10	> 10									
COc1ccc(S(=O)(=O)c2ccccc2[N+](=O)[O-])cc1	> 100	> 100	> 100	> 100	> 100	> 100		> 100											
CC1CCCCNC1=S (stereo not given)	> 10	> 10	> 10	> 10		> 10	> 10	> 10	> 10	> 10									
CC(=O)Nc1ccc(/C=C/c2ccc(NC(=O)Nc3ccc(/C=C/c4ccc(NC(C)=O)cc4S(=O)(=O)O)c(S(=O)(=O)O)c3)cc2S(=O)(=O)O)c(S(=O)(=O)O)c1	> 100	> 100	> 100	> 100	> 100	> 100		> 100	> 100										
